Values joined by “and” are separate entries in the source; they are usually repeats but may differ in a detail not shown here. Equal values may be shown once. Read-outs that look alike come from different tables or passages of the source.
How the values were obtained:
[1] = molecular target: T1, MDM2 (Homo sapiens, UniProt Q00987); assay: Inhibition test of MDM2-P53 (GST-MDM2, Biotin-P53, Anti-GST-Tb, SA-XL665); assay type: binding; conditions: labels are Example numbers; the compounds with S-configuration are meant
T1 construct: made in house
T1 sequence (Q00987 whole entry): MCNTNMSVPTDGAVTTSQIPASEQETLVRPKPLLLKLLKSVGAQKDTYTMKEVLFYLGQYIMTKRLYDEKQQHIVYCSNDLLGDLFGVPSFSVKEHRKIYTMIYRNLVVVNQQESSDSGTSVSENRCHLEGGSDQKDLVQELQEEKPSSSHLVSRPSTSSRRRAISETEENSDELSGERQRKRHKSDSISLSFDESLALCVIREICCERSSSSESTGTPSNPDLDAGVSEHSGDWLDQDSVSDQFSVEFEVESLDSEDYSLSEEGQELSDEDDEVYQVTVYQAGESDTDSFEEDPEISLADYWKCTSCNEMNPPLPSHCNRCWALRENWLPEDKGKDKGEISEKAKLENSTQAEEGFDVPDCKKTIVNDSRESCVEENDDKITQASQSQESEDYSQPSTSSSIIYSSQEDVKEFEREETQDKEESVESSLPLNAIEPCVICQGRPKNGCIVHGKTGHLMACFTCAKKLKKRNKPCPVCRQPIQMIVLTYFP
Protocol: Experimental purpose: To determine the inhibitory activities of the compounds of the present invention on MDM2.
The present experiment uses the following assay methods/instruments/reagents:
Buffer: 1×PBS+0.1% BSA+5 mM DTT; MDM2 Buffer: Buffer+1 mM AEBSF
GST-MDM2: The final concentration is 4 nM, and it is required to formulate a 20 nM (5×) solution. A mother liquor is diluted by 3500 folds, wherein the mother liquor is 10-fold diluted first, and then 350-fold diluted.
Anti-GST-Tb: The final concentration is 2×, and a mother liquor is diluted by 50 folds.
MIX: GST-MDM2, Biotin-P53, SA-XL665 and Anti-GST-Tb were mixed according to a ratio of 4:4:5:5.
Sample: Preparation of a sample (10 mM in DMSO) solution: a. 3 μL sample+7 μL DMSO+20 μL DMSO were formulated to give an initial concentration of 1 mM and mixed well; b. in plate 1, twelve 5-fold serial dilutions (sequentially prepared by adding 10 μL of the last sample to 40 μL DMSO) were prepared and mixed well, individually; c. plate 2 was taken, 45 μL of Buffer was added to each well, and 5 μL of dilution at each concentration was taken from plate 1 and added to the corresponding well in plate 2 (the concentration in well 1 was 100 μM), and mixed well.
1. 18 μL of MIX was added to a 384-well plate, and centrifugation was performed at 4500 rpm for 5 min.
2. 2 μL of sample was added correspondingly to each well, the resultant was centrifuged at 25° C. and 4500 rpm for 5 min, and shaked at 25° C. for 90 min on a shaker.
Readings were obtained from the Microplate reader, and data was processed by Graphpad Prism 6.0.

[2] = Pharmacokinetics in ICR mice after intravenous and intragastric administration; assay type: in vivo; conditions: for MRT last: read-out: MRT(0-t); for MRT inf: read-out: MRT(0-∞); for Tmax: read-out: Tmax; for Vd: read-out: Vz; for half-life: read-out: t1/2 (converted)
Protocol: Experimental Example 3 Determination of the Pharmacokinetics of the Mdm2 Inhibitors of the Present Invention in Mice
ICR mice were used as the test animals, and the concentrations of the drugs in plasma of mice at different time points after intravenous administration and intragastric administration of the representative compounds were measured by a LC/MS/MS method, so as to study the pharmacokinetic behavior of the compounds of the present invention in mice and evaluate the pharmacokinetic characteristics thereof.
Some compounds prepared in Examples 1-180 of the present invention.
The control drug HDM201 was prepared by the method disclosed in patent No. CN104203952A.
Healthy adult ICR mice, male, 6-9 weeks old, weighing 20-30 g, purchased from Shanghai Xipuer-Bikai Laboratory Animal Co., Ltd., Animal Production License No.: SCXK (HU) 2013-0016
3.2.3 Preparation of Test Drugs
Intragastric or intravenous administration: an appropriate amount of sample was weighed, dissolved in 5% DMSO+40% PEG400+55% (10% HP-β-CD in Saline) to prepare a 0.5 mg/ml solution for intragastric or intravenous administration.
3.2.4 Administration of Test Drugs
Intravenous administration: for each test compound, 3 male ICR mice were administered intravenously at a dose of 2 mg/kg and an administration volume of […] after fasting overnight.
Intragastric administration: for each test compound, 3 male ICR mice were administered intragastrically at a dose of 5 mg/kg and an administration volume of […] after fasting overnight.
3.3 Experimental Operation
The collected plasma was stored at −80° C. before analysis. The plasma sample was analyzed by LC-MS/MS, and the sample was pretreated by protein precipitation method. The linear range of sample analysis was 1 to 2000 ng/ml. The lowest quantification limit was 1 ng/mL. WinNonlin (Pharsight, USA) was used to calculate the following pharmacokinetic parameters: area under the curve AUC(0-t), area under the curve AUC(0-∞), half-life t1/2, retention time MRT(0-∞), blood drug concentration Cmax, time taken to reach the peak blood drug concentration Tmax, bioavailability F, apparent volume of distribution Vz, and clearance rate CL.

[3] = IV 2 mg/kg, ICR mice, individual animal, 2 mg/kg
[4] = PO 5 mg/kg, ICR mice, individual animal, 5 mg/kg
[5] = male, ICR, mouse, plasma, iv, 2 mg/kg, IV 2 mg/kg, ICR mice, Mean
[6] = male, ICR, mouse, plasma, iv, 2 mg/kg, IV 2 mg/kg, ICR mice, individual animal
[7] = male, ICR, mouse, plasma, po, 5 mg/kg, PO 5 mg/kg, ICR mice, Mean
[8] = male, ICR, mouse, plasma, po, 5 mg/kg, PO 5 mg/kg, ICR mice, individual animal

Question: For `COc1ccncc1-c1nc2c(n1C(C)C)C1(C(=O)Nc3cc(Cl)ccc31)N(c1cc(Cl)ccc1C)C2=O` (stereo not shown) [Example 18, 6-chloro-5′-(5-chloro-2-methylphenyl)-3′-isopropyl-2′-(4-methoxypyridin-3-yl)-3′H-spiro[dihydroindole-3,4′-pyrrolo[3,4-d]imidazole]-2,6′(5′H)-dione], which “inhibitory effect on MDM2 compared with positive control compound HDM201” value [1] is on record?
Answer: better

Question: Which “inhibitory effect on MDM2 compared with positive control compound HDM201” value [1] does the source give for `CNC(=O)c1ccc(OC)c(-c2nc3c(n2C(C)C)C2(C(=O)Nc4cc(Cl)ccc42)N(c2cc(Cl)ccc2C)C3=O)c1` (stereo not shown) [Example 21, 3-(6-chloro-5′-(5-chloro-2-methylphenyl)-3′-isopropyl-2,6′-dioxo-5′,6′-dihydro-3′H-spiro[dihydroindole-3,4′-pyrrolo[3,4-d]imidazole]-2′-yl)-4-methoxy-N-methylbenzamide] here?
Answer: better

Question: For `COc1ccc(C(N)=O)cc1-c1nc2c(n1C(C)C)C1(C(=O)Nc3cc(Cl)ccc31)N(c1cc(Cl)ccc1C)C2=O` (stereo not shown) [Example 29, 3-(6-chloro-5′-(5-chloro-2-methylphenyl)-3′-isopropyl-2,6′-dioxo-5′,6′-dihydro-3′H-spiro[dihydroindole-3,4′-pyrrolo[3,4-d]imidazole]-2′-yl)-4-methoxybenzamide], which “inhibitory effect on MDM2 compared with positive control compound HDM201” value [1] is on record?
Answer: better

Question: For `COc1ncc(-c2nc3c(n2C(C)C)C2(C(=O)Nc4cc(Cl)ccc42)N(c2cc(Cl)ccc2F)C3=O)c(OC)n1` (stereo not shown) [Example 44, 6-chloro-5′-(5-chloro-2-fluorophenyl)-2′-(2,4-dimethoxypyrimidin-5-yl)-3′-isopropyl-3′H-spiro[dihydroindole-3,4′-pyrrolo[3,4-d]imidazole]-2,6′(5′H)-dione], which “inhibitory effect on MDM2 compared with positive control compound HDM201” value [1] is on record?
Answer: better

Question: Which “inhibitory effect on MDM2 compared with positive control compound HDM201” value [1] does the source give for `COc1ncc(-c2nc3c(n2C(C)C)C2(C(=O)Nc4cc(Cl)ccc42)N(c2ccc(OC)c(Cl)c2)C3=O)c(OC)n1` (stereo not shown) [Example 48, 6-chloro-5′-(3-chloro-4-methoxyphenyl)-2′-(2,4-dimethoxypyrimidin-5-yl)-3′-isopropyl-3′H-spiro[dihydroindole-3,4′-pyrrolo[3,4-d]imidazole]-2,6′(5′H)-dione] here?
Answer: better

Question: Which “inhibitory effect on MDM2 compared with positive control compound HDM201” value [1] does the source give for `COc1ccc(-c2nc3c(n2C(C)C)C2(C(=O)Nc4cc(Cl)ccc42)N(c2cc(Cl)c(=O)n(C)c2)C3=O)c(OC)c1` (stereo not shown) [Example 52, 6-chloro-5′-(5-chloro-1-methyl-6-oxo-1,6-dihydropyridin-3-yl)-2′-(2,4-dimethoxyphenyl)-3′-isopropyl-3′H-spiro[dihydroindole-3,4′-pyrrolo[3,4-d]imidazole]-2,6′(5′H)-dione] here?
Answer: better

Question: For `COc1ncc(-c2nc3c(n2C(C)C)[C@H](c2ccc(Cl)cc2)N(c2cc(Cl)cn(C)c2=O)C3=O)c(OC)n1` [HDM201, reference compound], which “AUC(0-t)” value [2, 3] is on record?
Answer: 520.23 ng·h/mL and 622.13 ng·h/mL

Question: What about the “AUC(0-∞)” value [2, 3] of the same compound?
Answer: 600.29 ng·h/mL and 713.62 ng·h/mL

Question: What about the CL [2, 3] of the same compound?
Answer: 55.5285 mL/min/kg and 46.7105 mL/min/kg

Question: And the Cmax [2, 3]?
Answer: 459.85 ng/mL and 585.03 ng/mL

Question: And the “MRT(0-t)” value [2, 3]?
Answer: 40.8 min and 39.6 min

Question: What about the “MRT(0-∞)” value [2, 3] of the same compound?
Answer: 58.8 min and 57.6 min

Question: And the Vz [2, 3]?
Answer: 3.23181 L/kg and 2.7173 L/kg

Question: And the t1/2 [2, 3]?
Answer: 40.2 min

Question: And the “F*” value ([2]; PO 5 mg/kg vs IV 2 mg/kg, ICR mice)?
Answer: 78.76%

Question: And the “AUC(0-t)” value [2, 4]?
Answer: 797.19 ng·h/mL and 1522.78 ng·h/mL

Question: And the “AUC(0-∞)” value [2, 4]?
Answer: 818.45 ng·h/mL and 1539.76 ng·h/mL

Question: And the Cmax [2, 4]?
Answer: 584.08 ng/mL and 715.01 ng/mL

Question: And the “MRT(0-t)” value [2, 4]?
Answer: 62.4 min and 109 min

Question: And the “MRT(0-∞)” value [2, 4]?
Answer: 69 min and 115 min

Question: And the t1/2 [2, 4]?
Answer: 44.4 min and 74.4 min

Question: What about the AUC(0-inf) [2, 5] of the same compound?
Answer: 644 ng·h/mL

Question: What about the clearance [2, 5] of the same compound?
Answer: 52 mL/min/kg

Question: What about the AUC(0-t) ([2]; male, ICR, mouse, plasma, iv, 2 mg/kg, IV 2 mg/kg, ICR mice, Mean, read-out: AUC(0-t)) of the same compound?
Answer: 572 ng·h/mL

Question: And the Cmax ([2]; male, ICR, mouse, plasma, iv, 2 mg/kg, IV 2 mg/kg, ICR mice, Mean, read-out: Cmax)?
Answer: 550 ng/mL

Question: And the MRT last [2, 5]?
Answer: 38.4 min

Question: And the MRT inf [2, 5]?
Answer: 54 min

Question: And the Tmax [2, 5]?
Answer: 4.98 min

Question: And the Vd [2, 5]?
Answer: 2.8 L/kg

Question: And the half-life [2, 5]?
Answer: 37.2 min

Question: What about the AUC(0-inf) [2, 6] of the same compound?
Answer: 619 ng·h/mL

Question: And the clearance [2, 6]?
Answer: 53.8 mL/min/kg

Question: What about the AUC(0-t) ([2]; male, ICR, mouse, plasma, iv, 2 mg/kg, IV 2 mg/kg, ICR mice, individual animal, read-out: AUC(0-t)) of the same compound?
Answer: 574 ng·h/mL

Question: What about the Cmax ([2]; male, ICR, mouse, plasma, iv, 2 mg/kg, IV 2 mg/kg, ICR mice, individual animal, read-out: Cmax) of the same compound?
Answer: 606 ng/mL

Question: And the MRT last [2, 6]?
Answer: 35.4 min

Question: And the MRT inf [2, 6]?
Answer: 45 min

Question: What about the Tmax [2, 6] of the same compound?
Answer: 4.8 min

Question: What about the Vd [2, 6] of the same compound?
Answer: 2.46 L/kg

Question: And the half-life [2, 6]?
Answer: 31.8 min

Question: And the AUC(0-inf) [2, 7]?
Answer: 1150 ng·h/mL

Question: And the AUC(0-t) ([2]; male, ICR, mouse, plasma, po, 5 mg/kg, PO 5 mg/kg, ICR mice, Mean, read-out: AUC(0-t))?
Answer: 1130 ng·h/mL

Question: And the Cmax ([2]; male, ICR, mouse, plasma, po, 5 mg/kg, PO 5 mg/kg, ICR mice, Mean, read-out: Cmax)?
Answer: 569 ng/mL

Question: What about the MRT last [2, 7] of the same compound?
Answer: 96 min

Question: What about the MRT inf [2, 7] of the same compound?
Answer: 103 min

Question: And the Tmax [2, 7]?
Answer: 30 min

Question: What about the half-life [2, 7] of the same compound?
Answer: 66.6 min

Question: And the AUC(0-inf) [2, 8]?
Answer: 1080 ng·h/mL

Question: And the AUC(0-t) ([2]; male, ICR, mouse, plasma, po, 5 mg/kg, PO 5 mg/kg, ICR mice, individual animal, read-out: AUC(0-t))?
Answer: 1060 ng·h/mL

Question: And the Cmax ([2]; male, ICR, mouse, plasma, po, 5 mg/kg, PO 5 mg/kg, ICR mice, individual animal, read-out: Cmax)?
Answer: 409 ng/mL

Question: What about the MRT last [2, 8] of the same compound?
Answer: 116 min

Question: And the MRT inf [2, 8]?
Answer: 125 min

Question: What about the Tmax [2, 8] of the same compound?
Answer: 30 min

Question: What about the half-life [2, 8] of the same compound?
Answer: 80.4 min

Question: And the AUC(0-t) ([2]; male, ICR, mouse, plasma, po, 5 mg/kg, oral intragastric administration 5 mg/kg, read-out: AUC0-t)?
Answer: 1130 ng·h/mL

Question: What about the bioavailability ([2]; male, ICR, mouse, plasma, oral intragastric administration 5 mg/kg, read-out: bioavailability) of the same compound?
Answer: 78.8%

From US11339171B2, “MDM2 inhibitors” (Gan & Lee Pharmaceuticals, priority 2017, dated 2022)
